Assay results as given in PubChem BioAssay AID248 (DTP/NCI, 2004).
Several values for one entry are separate records, joined by “and”; a condition that tells them apart may be missing. Equal values may be shown once. Toxic doses and inconclusive results are not listed.

Test system: L1210 leukemia ip in BDF1 mice, survival T/C
Assay: NCI In Vivo Anticancer Drug Screen. Data for tumor model L1210 Leukemia (intraperitoneal) in B6D2F1 (BDF1) mice
Conditions: endpoint: mean survival time, higher = longer survival
Outline: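 Transplantable tumor model; survival measured in treated vs vehicle control mice. Value = treated/control.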

[1] = dose: 100.0 mg/kg/injection, schedule: Q01DX001 (ip), vehicle: Klucel (hydroxypropylcellulose) (HPC)
[2] = dose: 100.0 mg/kg/injection, schedule: Q04DX002 (ip), vehicle: saline with Tween-80
[3] = dose: 200.0 mg/kg/injection, schedule: Q01DX001 (ip), vehicle: Klucel (hydroxypropylcellulose) (HPC)
[4] = dose: 200.0 mg/kg/injection, schedule: Q04DX002 (ip), vehicle: saline with Tween-80
[5] = dose: 400.0 mg/kg/injection, schedule: Q01DX001 (ip), vehicle: Klucel (hydroxypropylcellulose) (HPC)
[6] = dose: 400.0 mg/kg/injection, schedule: Q04DX002 (ip), vehicle: saline with Tween-80
[7] = dose: 50.0 mg/kg/injection, schedule: Q01DX001 (ip), vehicle: saline
[8] = dose: 100.0 mg/kg/injection, schedule: Q01DX001 (ip), vehicle: saline
[9] = dose: 200.0 mg/kg/injection, schedule: Q01DX001 (ip), vehicle: saline
[10] = dose: 400.0 mg/kg/injection, schedule: Q01DX001 (ip), vehicle: saline
[11] = dose: 100.0 mg/kg/injection, schedule: Q04DX002 (ip), vehicle: Klucel (hydroxypropylcellulose) (HPC)
[12] = dose: 400.0 mg/kg/injection, schedule: Q04DX002 (ip), vehicle: Klucel (hydroxypropylcellulose) (HPC)
[13] = dose: 100.0 mg/kg/injection, schedule: Q04DX003 (ip), vehicle: Klucel (hydroxypropylcellulose) (HPC)
[14] = dose: 200.0 mg/kg/injection, schedule: Q04DX003 (ip), vehicle: Klucel (hydroxypropylcellulose) (HPC)
[15] = dose: 400.0 mg/kg/injection, schedule: Q04DX003 (ip), vehicle: Klucel (hydroxypropylcellulose) (HPC)
[16] = dose: 50.0 mg/kg/injection, schedule: Q01DX009 (ip), vehicle: saline
[17] = dose: 100.0 mg/kg/injection, schedule: Q01DX009 (ip), vehicle: saline

O/N=C/c1cccc(CC(O)(C(F)(F)F)C(F)(F)F)n1
T/C (dose: 50.0 mg/kg/injection, schedule: Q04DX002 (ip), vehicle: saline with Tween-80): 103 % of control | T/C [1]: 98 % of control | T/C [2]: 88 % of control | T/C [3]: 98 % of control | T/C [4]: 109 % of control | T/C [5]: 87 % of control | T/C [6]: 106 % of control

O=C(Nc1ccc(C2=NCCN2)cc1)c1ccc(NC(=O)c2ccc(C3=NCCN3)cc2)cc1
T/C (dose: 1.88 mg/kg/injection, schedule: Q01DX Z (ip), vehicle: saline): 101 % of control | T/C (dose: 3.75 mg/kg/injection, schedule: Q01DX Z (ip), vehicle: saline): 106 % of control | T/C (dose: 7.5 mg/kg/injection, schedule: Q01DX Z (ip), vehicle: saline): 117 % of control | T/C (dose: 15.0 mg/kg/injection, schedule: Q01DX009 (ip), vehicle: saline): 119 % of control | T/C (dose: 30.0 mg/kg/injection, schedule: Q01DX009 (ip), vehicle: saline): 190 % of control | T/C (dose: 30.0 mg/kg/injection, schedule: Q01DX Z (ip), vehicle: carboxymethylcellulose (CMC)): 203 % of control | T/C (dose: 50.0 mg/kg/injection, schedule: Q01DX007 (oral), vehicle: carboxymethylcellulose (CMC)): 103 % of control | T/C (dose: 60.0 mg/kg/injection, schedule: Q01DX009 (ip), vehicle: saline): 197 % of control and 232 % of control | T/C (dose: 62.5 mg/kg/injection, schedule: Q## X010 (oral), vehicle: saline): 101 % of control | T/C (dose: 100.0 mg/kg/injection, schedule: Q01DX007 (oral), vehicle: carboxymethylcellulose (CMC)): 100 % of control | T/C (dose: 120.0 mg/kg/injection, schedule: Q01DX009 (ip), vehicle: saline): 117 % of control | T/C (dose: 125.0 mg/kg/injection, schedule: Q## X010 (oral), vehicle: saline): 102 % of control | T/C (dose: 200.0 mg/kg/injection, schedule: Q01DX007 (oral), vehicle: carboxymethylcellulose (CMC)): 108 % of control | T/C (dose: 400.0 mg/kg/injection, schedule: Q01DX007 (oral), vehicle: carboxymethylcellulose (CMC)): 94 % of control | T/C (dose: 500.0 mg/kg/injection, schedule: Q## X010 (oral), vehicle: saline): 101 % of control | T/C (dose: 800.0 mg/kg/injection, schedule: Q01DX007 (oral), vehicle: carboxymethylcellulose (CMC)): 101 % of control

Cc1c2ccc3ccccc3c2cc2cccc(C#N)c12
T/C [1]: 106 % of control | T/C [3]: 98 % of control | T/C [5]: 98 % of control

CCCCn1cccc1
T/C (dose: 100.0 mg/kg/injection, schedule: Q04DX003 (ip), vehicle: saline with Tween-80): 106 % of control | T/C (dose: 200.0 mg/kg/injection, schedule: Q04DX003 (ip), vehicle: saline with Tween-80): 95 % of control

O=C(OC1(c2ccccc2)CC2CC1c1ccccc12)c1ccc([N+](=O)[O-])cc1 (configuration not stated)
T/C (dose: 50.0 mg/kg/injection, schedule: Q01DX001 (ip), vehicle: carboxymethylcellulose (CMC)): 88 % of control | T/C (dose: 100.0 mg/kg/injection, schedule: Q01DX001 (ip), vehicle: carboxymethylcellulose (CMC)): 95 % of control | T/C (dose: 200.0 mg/kg/injection, schedule: Q01DX001 (ip), vehicle: carboxymethylcellulose (CMC)): 95 % of control

Cc1ccccc1CO
T/C [7]: 97 % of control | T/C [8]: 97 % of control | T/C [9]: 97 % of control | T/C [10]: 100 % of control

CCOC(=O)c1cc2c(=O)c(C(=O)OCC)c[nH]c2o1
T/C [11]: 104 % of control | T/C [12]: 104 % of control

N#Cc1[nH]cnc1/N=N/N(CCF)CCF
T/C (dose: 9.5 mg/kg/injection, schedule: Q01DX009 (ip), vehicle: saline with Tween-80): 101 % of control | T/C (dose: 18.0 mg/kg/injection, schedule: Q01DX009 (ip), vehicle: saline with Tween-80): 121 % of control | T/C (dose: 18.0 mg/kg/injection, schedule: Q04DX003 (ip), vehicle: saline with Tween-80): 98 % of control | T/C (dose: 37.0 mg/kg/injection, schedule: Q04DX003 (ip), vehicle: saline with Tween-80): 116 % of control

CCCCNC(C)(C)C1(c2ccc(Cl)cc2)SSC(c2ccc(Cl)cc2)(C(C)(C)NCCCC)SS1 (configuration not stated)
T/C (dose: 100.0 mg/kg/injection, schedule: Q01DX009 (ip), vehicle: Klucel (hydroxypropylcellulose) (HPC)): 99 % of control | T/C [13]: 93 % of control | T/C (dose: 200.0 mg/kg/injection, schedule: Q01DX009 (ip), vehicle: Klucel (hydroxypropylcellulose) (HPC)): 99 % of control | T/C [14]: 101 % of control | T/C [15]: 97 % of control

Oc1ccc(-c2n[nH]c3c2CCCc2ccccc2-3)cc1
T/C (dose: 12.5 mg/kg/injection, schedule: Q01DX001 (ip), vehicle: saline with Tween-80): 101 % of control | T/C (dose: 12.5 mg/kg/injection, schedule: Q04DX003 (ip), vehicle: saline with Tween-80): 103 % of control | T/C (dose: 25.0 mg/kg/injection, schedule: Q01DX001 (ip), vehicle: saline with Tween-80): 104 % of control | T/C (dose: 25.0 mg/kg/injection, schedule: Q04DX003 (ip), vehicle: saline with Tween-80): 106 % of control | T/C (dose: 50.0 mg/kg/injection, schedule: Q01DX001 (ip), vehicle: saline with Tween-80): 108 % of control | T/C (dose: 50.0 mg/kg/injection, schedule: Q04DX003 (ip), vehicle: saline with Tween-80): 92 % of control

OCc1ccn2c1[C@@H](O)CC2
T/C (dose: 6.25 mg/kg/injection, schedule: Q01DX009 (ip), vehicle: saline): 107 % of control | T/C (dose: 12.5 mg/kg/injection, schedule: Q01DX009 (ip), vehicle: acetone): 100 % of control | T/C (dose: 12.5 mg/kg/injection, schedule: Q01DX009 (ip), vehicle: saline): 96 % of control | T/C (dose: 25.0 mg/kg/injection, schedule: Q01DX001 (ip), vehicle: saline): 101 % of control and 107 % of control | T/C (dose: 25.0 mg/kg/injection, schedule: Q01DX009 (ip), vehicle: acetone): 111 % of control | T/C (dose: 25.0 mg/kg/injection, schedule: Q01DX009 (ip), vehicle: saline): 110 % of control | T/C [7]: 112 % of control | T/C [16]: 153 % of control | T/C [17]: 121 % of control and 89 % of control | T/C [9]: 112 % of control

O=S(=O)(Cl)c1ccc(Oc2ccc(S(=O)(=O)Cl)cc2)cc1
T/C [7]: 105 % of control | T/C [8]: 94 % of control | T/C [9]: 105 % of control | T/C [10]: 90 % of control

CC(C)=NNC(=O)CC(=O)NN=C(C)C
T/C (dose: 100.0 mg/kg/injection, schedule: Q04DX003 (ip), vehicle: saline sonified): 89 % of control | T/C (dose: 200.0 mg/kg/injection, schedule: Q04DX003 (ip), vehicle: saline sonified): 87 % of control | T/C (dose: 400.0 mg/kg/injection, schedule: Q04DX003 (ip), vehicle: saline sonified): 94 % of control

CS(=O)(=O)CCC(C#N)(CCS(C)(=O)=O)c1ccccc1
T/C [13]: 110 % of control | T/C [14]: 100 % of control | T/C [15]: 102 % of control

O=C(NSNc1ccccc1)c1ccccc1
T/C [11]: 110 % of control | T/C (dose: 200.0 mg/kg/injection, schedule: Q04DX002 (ip), vehicle: Klucel (hydroxypropylcellulose) (HPC)): 103 % of control | T/C [12]: 100 % of control

[Cl][Sn]([c]1cccc2ccccc12)([c]1cccc2ccccc12)[c]1cccc2ccccc12
T/C [2]: 98 % of control | T/C [4]: 102 % of control | T/C [6]: 87 % of control

O=C(CNC(=O)c1ccccc1)N/N=C\c1c[nH]c2ccccc12
T/C (dose: 100.0 mg/kg/injection, schedule: Q01DX009 (ip), vehicle: saline with Tween-80): 97 % of control | T/C (dose: 200.0 mg/kg/injection, schedule: Q01DX009 (ip), vehicle: saline with Tween-80): 99 % of control | T/C (dose: 400.0 mg/kg/injection, schedule: Q01DX009 (ip), vehicle: saline with Tween-80): 100 % of control

CCOC(=O)c1[nH]c(C)c(C(=O)OCc2ccccc2)c1CCC(=O)O
T/C (dose: 75.0 mg/kg/injection, schedule: Q01DX001 (ip), vehicle: saline with Tween-80): 92 % of control | T/C (dose: 150.0 mg/kg/injection, schedule: Q01DX001 (ip), vehicle: saline with Tween-80): 97 % of control | T/C (dose: 300.0 mg/kg/injection, schedule: Q01DX001 (ip), vehicle: saline with Tween-80): 100 % of control

CCN(CC)CCNc1ccc(CO)c2oc3ccccc3c(=O)c12
T/C [16]: 99 % of control | T/C [17]: 96 % of control | T/C (dose: 200.0 mg/kg/injection, schedule: Q01DX009 (ip), vehicle: saline): 99 % of control
